Data on five compounds can be found in patent US20180312473A1, “PHENAZINE DERIVATIVES AS ANTIMICROBIAL AGENTS” (priority 2015, published 2018).

For data set [1], the system named is Staphylococcus aureus and S. epidermidis. Particulars: cited from earlier work.
Data set [2] concerns S. aureus clinical isolate SA 129. The data set is described as follows: MIC assay (broth microdilution, CLSI). Conditions: Staphylococcus aureus, read-out: MIC, SA 129.
Data set [3] is described as follows: Aqueous solubility under MIC assay conditions. Format: physicochemical. Particulars: MIC assay media, 37 °C, aqueous buffer; read-out: [aq. soluble].
The subject of data set [4] is MRSA-1 (methicillin-resistant Staphylococcus aureus clinical isolate). The data set is described as follows: MIC assay (broth microdilution, CLSI). Format: cell-based. Conditions: Staphylococcus aureus, MRSA, Table 11; read-out: MIC, MRSA-1. A general note: Broth dilution looks for growth in wells or tubes with falling amounts of substance.
For data set [5], the system named is MRSA BAA-44. Briefly: MIC assay (broth microdilution, CLSI). Conditions: Staphylococcus aureus, read-out: MIC, MRSA BAA-44.
Data set [6] concerns Staphylococcus epidermidis (ATCC 12228). The data set is described as follows: MIC assay (broth microdilution, CLSI). Conditions: Staphylococcus epidermidis. Format: cell-based.
The subject of data set [7] is MRSA-2 (methicillin-resistant Staphylococcus aureus clinical isolate). The data set is described as follows: MIC assay (broth microdilution, CLSI). Format: cell-based. Particulars: Staphylococcus aureus, MRSA, read-out: MIC, MRSA-2.
The test system of data set [8] is MRSA BAA-1707. Briefly: MIC assay (broth microdilution, CLSI). Particulars: Staphylococcus aureus, read-out: MIC, MRSA BAA-1707.
For data set [9], the system named is Enterococcus faecium (ATCC 700221), VRE. Briefly: MIC assay (broth microdilution, CLSI). Format: cell-based.
Data set [10] has as its system E. coli UAEC-1. Briefly: MIC assay (broth microdilution, CLSI). Particulars: Escherichia coli, UAEC1; read-out: E. coli UAEC-1 MIC. Format: cell-based.
The subject of data set [11] is methicillin-resistant S. aureus (MRSA) strains. Briefly: MIC assay, values summarised over MRSA strains. Format: cell-based, Staphylococcus aureus.
Data set [12] deals with human red blood cells. Briefly: Hemolysis assay with red blood cells. Particulars: 200 μM. The method in brief: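 Washed human red blood cells exposed to compounds added from DMSO stocks, 1 h at 37° C.; supernatant OD read at 405 nm after centrifugation. % hemolysis calculated relative to DMSO (0%) and Triton X (100%) controls, from three independent experiments.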
Data set [13] relates to Staphylococcus epidermidis (ATCC 35984), MRSE. The data set is described as follows: MIC assay (broth microdilution, CLSI). Format: cell-based. Conditions: Staphylococcus epidermidis.
Data set [14] concerns A. baumannii 19606. The data set is described as follows: MIC assay (broth microdilution, CLSI). Format: cell-based, Acinetobacter baumannii. Conditions: Acinetobacter baumannii, 19606; read-out: A. baumannii 19606 MIC.
Data set [15] has as its system M. tuberculosis H37Ra (ATCC 25177). The data set is described as follows: Mycobacterium tuberculosis MIC assay. Conditions: Mycobacterium tuberculosis. Format: cell-based. Put shortly:
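Culture diluted to OD600 0.01 and exposed to compounds in 0.5% final DMSO, each compound tested in three rows. Growth read as OD600 absorbance. Data from three independent experiments.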

Data set [16] concerns P. aeruginosa (PAO1). The data set is described as follows: MIC assay (broth microdilution, CLSI). Format: cell-based. Particulars: Pseudomonas aeruginosa, PAO1; read-out: PAO1 MIC.
Data set [17] deals with S. aureus clinical isolate SA 138. Briefly: MIC assay (broth microdilution, CLSI). Particulars: Staphylococcus aureus, read-out: MIC, SA 138.
Data set [18] relates to S. aureus clinical isolate SA 156. The data set is described as follows: MIC assay (broth microdilution, CLSI). Conditions: Staphylococcus aureus, read-out: MIC, SA 156.
For data set [19], the system named is K. pneumoniae 13883. The data set is described as follows: MIC assay (broth microdilution, CLSI). Conditions: Klebsiella pneumoniae, 13883; read-out: K. pneumoniae 13883 MIC. Format: cell-based, Klebsiella pneumoniae.
For data set [20], the system named is MRSA-2. Briefly: MIC assay with Tiron or metal(II) cation co-treatment. Format: cell-based, Staphylococcus aureus. Particulars: Staphylococcus aureus; MRSA-2, no additive (Table 9); read-out: MIC.
Data set [21] in a line: in vitro. Format: cell-based. Particulars: human.
Data set [22] relates to VRE (E. faecium ATCC 700221) planktonic cells and biofilms. The data set is described as follows: Calgary Biofilm Device (CBD) assay, MBC/MBEC. Format: cell-based, Enterococcus faecium. Conditions: for MBC: Enterococcus, read-out: VRE 700221 MBC.
The subject of data set [23] is MRSA-2 planktonic cells and biofilms. The data set is described as follows: Calgary Biofilm Device (CBD) assay, MBC/MBEC. Format: cell-based, Staphylococcus aureus.
Data set [24] concerns S. aureus clinical isolate SA 147. Briefly: MIC assay (broth microdilution, CLSI). Particulars: Staphylococcus aureus, read-out: MIC, SA 147.
For data set [25], the system named is MRSE (S. epidermidis ATCC 35984) planktonic cells and biofilms. The data set is described as follows: Calgary Biofilm Device (CBD) assay, MBC/MBEC. Format: cell-based, Staphylococcus epidermidis. Conditions: for MBC: Staphylococcus epidermidis, read-out: MRSE 35984 MBC.
The subject of data set [26] is MRSA BAA-1707 planktonic cells and biofilms. The data set is described as follows: Calgary Biofilm Device (CBD) assay, MBC/MBEC. Particulars: Table 8.
Where [27] appears, read: ATCC12228, read-out: MIC, S. epidermidis 12228.
[28] abbreviates: ATCC12228, read-out: MIC, Staphylococcus epidermidis (ATCC 12228).
Where [29] appears, read: Table 7, a midpoint of 2-fold range, b lowest concentration tested.
Where [30] appears, read: Enterococcus faecium, Table 2A, read-out: MIC, Enterococcus faecium (ATCC 700221).
[31] abbreviates: Table 7, b lowest concentration tested, read-out: MIC, VRE 700221.
Setting [32] is: Table 2A, read-out: MIC, Staphylococcus epidermidis (ATCC 35984).
The mark [33] stands for this setting: Table 7, read-out: MIC, MRSE 35984.

The structures appear in SMILES notation. Values after ≈ are worked out from the molar mass of the structure shown. Values joined by “and” are separate entries in the source; they are usually repeats but may differ in a detail not shown here. Equal values may be shown once. Read-outs that look alike come from different tables or passages of the source.

In the case of `Oc1cccc2nc3ccccc3nc12` [1-hydroxyphenazine], in [1] (earlier report), the “activity against staphylococcal pathogens” value is “inactive”.

For the compound `Oc1c(Br)ccc2nc3ccccc3nc12` [Compound 1, 2-bromo-1-hydroxyphenazine], the “MIC against S. aureus and S. epidermidis” value in [1] (earlier report of the group) is 6.25 μM and 1.7 μg/mL.

By MIC is commonly meant the lowest concentration that inhibits growth of the organism. The term IC50 denotes the midpoint of a concentration-inhibition curve. Read a high IC50 as lower potency. Consider `Oc1ccc(Br)c2nc3cc(Cl)c(Cl)cc3nc12` [Compound 11], for which the MIC in data set [2] stood at 0.78 µM (≈ 0.268 µg/mL); in data set [4], 0.39 µM (≈ 0.134 µg/mL); in [5] it was 1.17 µM (≈ 0.402 µg/mL); in data set [6] (setting [27]), 3.13 µM (≈ 1.08 µg/mL); in data set [6] (setting [28]) it was 3.13 µM (≈ 1.08 µg/mL); in [7] (Table 2A), 0.78 µM (≈ 0.268 µg/mL). In addition, the MIC in data set [7] (setting [29]) was 0.78 µM (≈ 0.268 µg/mL); in data set [8], 0.3 µM (≈ 0.103 µg/mL); in data set [9] (setting [30]) it was 6.25 µM (≈ 2.15 µg/mL); in [9] (setting [31]) it was 6.25 µM (≈ 2.15 µg/mL); in [10], more than 100 µM; in [13] (setting [32]), 1.56 µM (≈ 0.537 µg/mL). Also, the minimum inhibitory concentration (MIC) in data set [13] (setting [33]) is 1.56 µM (≈ 0.537 µg/mL); in [14] it was more than 100 µM; in data set [15] (Table 7, read-out: MIC, M. tuberculosis H37Ra), 3.13 µM; in data set [15] (read-out: MIC, M. tuberculosis), approximately 1 µg/mL; in data set [16] it was more than 100 µM; in data set [17], 0.78 µM (≈ 0.268 µg/mL). The results for the MIC in [18], in data set [19] and in data set [20] were 1.17 µM (≈ 0.402 µg/mL), more than 100 µM and 0.78 µM, respectively. In data set [3], the solubility at 16 h was determined as 200 µM (≈ 68.8 µg/mL). In data set [11], the “growth inhibition activity against at least one MRSA strain” value is listed as “sub-micromolar”. For the same compound, the “% Hemolysis (200 μM)” value in [12] (human, 1 h, pH 7.2) was 2.7%. Besides, the “% Hemolysis at 200 μM” value in data set [12] (human, 1 h, pH 7.2) worked out at 2.7%. In [21], this compound yielded a half-maximal inhibitory concentration (IC50) at 24 h of more than 100 µM. Further, the MBC in [22] (Table 8, c lowest concentration tested) amounted to 100 µM (≈ 34.4 µg/mL).

On to `Oc1c(I)cc(I)c2nccnc12` [Compound 26], for which the MIC turned out to be 6.25 µM (≈ 2.49 µg/mL) in [2]; 1.56 µM (≈ 0.621 µg/mL) in data set [4]; 1.56 µM (≈ 0.621 µg/mL) in data set [5]; 6.25 µM (≈ 2.49 µg/mL) in data set [6] (ATCC12228, Table 2A, read-out: MIC, Staphylococcus epidermidis (ATCC 12228)); 6.25 µM (≈ 2.49 µg/mL) in data set [6] (ATCC12228, Table 7, b lowest concentration tested, read-out: MIC, S. epidermidis 12228); 3.13 µM (≈ 1.25 µg/mL) in data set [7] (setting [29]). Moreover, the MIC was determined as 1.56 µM (≈ 0.621 µg/mL) in data set [8]; 12.5 µM (≈ 4.97 µg/mL) in data set [9] (setting [30]); 12.5 µM (≈ 4.97 µg/mL) in data set [9] (setting [31]); 3.13 µM (≈ 1.25 µg/mL) in data set [13] (setting [32]); 3.13 µM (≈ 1.25 µg/mL) in [13] (setting [33]); 6.25 µM (≈ 2.49 µg/mL) in data set [24]. Also, the minimal inhibitory concentration (MIC) in data set [17] turned out to be 6.25 µM (≈ 2.49 µg/mL); in data set [18], 3.13 µM (≈ 1.25 µg/mL). Further, the “% Hemolysis (200 μM)” value in data set [12] (human, 1 h, pH 7.2) is listed as not above 1%. Moreover, the “% Hemolysis at 200 μM” value in [12] (human, 1 h, pH 7.2) is listed as not above 1%. The MBC was more than 2000 µM in data set [23] (Staphylococcus aureus, MRSA, Table 4, read-out: MBC, MRSA-2); more than 2000 µM in data set [23] (Staphylococcus aureus, MRSA, Table 8, a/b 2-/4-fold range in independent experiments, read-out: MRSA-2 MBC); 750 µM (≈ 298 µg/mL) in data set [25] (Table 8). This compound yielded a half-inhibitory concentration (IC50) at 24 h in data set [21] of more than 100 µM.

`CN[C@H](CC(C)C)C(=O)N[C@H]1C(=O)N[C@@H](CC(N)=O)C(=O)N[C@H]2C(=O)N[C@H]3C(=O)N[C@H](C(=O)N[C@H](C(=O)O)c4cc(O)cc(O)c4-c4cc3ccc4O)[C@H](O)c3ccc(c(Cl)c3)Oc3cc2cc(c3O[C@@H]2O[C@H](CO)[C@@H](O)[C@H](O)[C@H]2O[C@H]2C[C@](C)(N)[C@H](O)[C@H](C)O2)Oc2ccc(cc2Cl)[C@H]1O` [Vancomycin, vancomycin, reference compound]: the MIC in [6] (setting [27]) was 1.17 µM (≈ 1.7 µg/mL); in data set [6] (setting [28]) it was 1.17 µM (≈ 1.7 µg/mL); in data set [9] (Enterococcus faecium, read-out: MIC, Enterococcus faecium (ATCC 700221)), more than 100 µM; in data set [9] (Table 2B, b lowest concentration tested, read-out: MIC, Enterococcus faecium (ATCC 700221)), more than 100 µM; in [9] (read-out: MIC, VRE 700221), more than 100 µM; in [24], 1.17 µM (≈ 1.7 µg/mL). Moreover, the MIC in data set [17] came out at 1.17 µM (≈ 1.7 µg/mL). Moreover, in data set [12] (1 h, 37 °C), the “% Hemolysis (200 μM)” value is not above 1%. Further, the “% Hemolysis at 200 μM” value in [12] (red blood cells) was less than 1%; in data set [12] (Table 8, human red blood cells), not above 1%. Besides, the MBC in data set [23] (Staphylococcus aureus, MRSA, read-out: MBC, MRSA-2) is 5.9 µM (≈ 8.55 µg/mL); in [23] (Staphylococcus aureus, MRSA, read-out: MRSA-2 MBC), 3 µM (≈ 4.35 µg/mL); in data set [23] (Table 8, a/b 2-/4-fold range in independent experiments, read-out: MRSA-2 MBC), 3.0 µM (≈ 4.35 µg/mL); in [25], 3 µM (≈ 4.35 µg/mL); in data set [22] it was more than 200 µM. The “MRSA BAA-1707 MBEC” value in data set [26] was more than 2000 µM. The “MRSE MBEC” value in data set [25] (Table 5) is on record as > 2,000 μM. In addition, the “VRE MBEC” value in data set [22] (Table 5, c lowest concentration tested) is 150 µM.
